In this assay the test system is binding of troponin I to the actin-tropomyosin complex. The assay can be described thus: Experiment 4 and comparison example: co-precipitation (binding) of troponin I with the actin-tropomyosin complex in the presence of EGTA. Details: species or system swine. The conditions noted are these: 10 mM EGTA, 100,000×g 120 min 25° C. The protocol:
The actin-tropomyosin complex and the troponin C-I complex are usually detected by analyzing the precipitate obtained by ultracentrifugation of a mixture containing the actin-tropomyosin complex and the troponin C-I complex for 120 minutes at 100,000×g at 25° C. The binding of the troponin C-I complex to the actin-tropomyosin complex in muscle tissues can be confirmed by the detected actin-tropomyosin complex and the detected troponin C-I complex. For example, when a mixture containing the actin-tropomyosin complex and the troponin C-I complex is ultracentrifuged in the presence of EGTA as a calcium chelating agent (in other words, in the absence of calcium ions), the actin-tropomyosin complex and the troponin C-I complex combine each other to precipitate together. Detection of troponin I in the precipitate using SDS-gel electrophoresis allows confirmation that the precipitate contains a complex formed by the actin-tropomyosin complex and the troponin C-I complex.
A precipitate due to binding of the actin-tropomyosin complex and troponin I is usually not formed when a mixture containing the actin-tropomyosin complex, troponin and propranolol (a β-blocker) used as a therapeutic agent for heart failure is ultracentrifuged at 100,000×g for 120 minutes 25° C.
Swine muscle-derived actin, chicken gizzard-derived tropomyosin and swine myocardium-derived troponin used in this experiment were purchased from Sigma-Aldrich Corporation, and other unspecified reagents used in this experiment were purchased from Wako Pure Chemical Industries Ltd.
A 500 μl sample was prepared by adding 4.2 μg of actin, 2.1 μg of tropomyosin and 14 μg of troponin to 500 μl of a reaction solution containing 60 mM KCl, 20 mM MOPS (3-morpholinopropanesulfonic acid), 2 mM of MgCl2, 0.05 μg of pepstatin A, and 15 mM 2-mercaptoethanol. After centrifugation of this sample at 2,000×g for 10 minutes at 25° C., the precipitate was removed and the resulting supernatant was distributed to separate test tubes containing 10 mM of EGTA, and each tube was determined as a test sample.
Each test sample was reacted for 120 minutes at 25° C. and centrifuged at 100,000×g for 120 minutes at 25° C., and the supernatants were removed. After reaction solution was gently added to the removed precipitate so as not to suspend the precipitate, the precipitate was again removed by suction, washed, and determined as a test precipitate.
A sample buffer for polyacrylamide gel electrophoresis (SDS-PAGE) was added to each washed test precipitate and mixed well to suspend the test precipitate. The resulting suspension was electrophoresized on a gel (PAG MINI “No. 1” 10/20) for about 1 hour at 40 mA. After electrophoresis, the suspension was silver-stained using “Daiichi” 2D-silver staining reagent (Daiichi Pure Chemicals Co., Ltd), and washed with distilled water and dried. The amount of precipitate in each silver-stained protein band obtained by gel electrophoresis was quantitated using a densitometer.
The amounts of precipitate of troponin I in the second to fifth test precipitates were calculated as ratios of the amount of precipitate of troponin I in the first test precipitate, which was obtained without the compound (the concentration of the compound was 0 M).
The affinity of troponin I for the actin-tropomyosin complex was measured using the same method as in Experiment 4, but using propranolol (a β-blocker which is used as a therapeutic agent for heart failure) for comparison with the compound in the invention.
A 500 μl sample was prepared by adding 4.2 μg of actin, 2.1 μg of tropomyosin and 14 μg of troponin I to 500 μl of a reaction solution containing 60 mM KCl, 20 mM MOPS (3-morpholinopropanesulfonic acid), 2 mM MgCl2, 0.05 μg of pepstatin A, and 15 mM 2-mercaptoethanol. […]

One compound from US20070219180A1, “Muscle Relaxtion Accelerator and Therapeutic Agent for Muscular Tissue Diseases Such as Muscle Relaxation Failure” (priority 2004, published 2007) can be followed below.

Turning to `COc1ccc2c(c1)CN(C(=O)CCN1CCC(Cc3ccccc3)CC1)CCS2` [the compound, 4-[3-(4-benzylpiperidine-1-yl)propionyl]-7-methoxy-2,3,4,5-tetrahydro-1,4-benzothiazepine], the “Precipitate of troponin I (ratio to the sample without drug)” value is, setting by setting: (drug concentration 10^−4 mol) 2.8; (drug concentration 10^−5 mol) 2.2; (drug concentration 10^−6 mol) 1.8; (drug concentration 10^−7 mol) 1.2.
